Experimental data: paper PMC10778626, “Efficacy of Novel Quaternary Ammonium and Phosphonium Salts Differing in Cation Type and Alkyl Chain Length against Antibiotic-Resistant Staphylococcus aureus” (International Journal of Molecular Sciences, 2023)

Experiments:
HepG2 cells = assay: Cytotoxicity by neutral red (NR) uptake; type: cell-based, human; conditions: for NR uptake (lysosomal activity), % of control: HepG2, 24 h; for safety profile (MIC correlated with in vitro human cellular data): concentrations equal to or below 2 µg/mL
Description: The evaluation of the cytotoxicity effects of QHSs was performed using hepatocellular carcinoma (HepG2) cells. […] The cells used for all experiments were taken between the 9th and 13th passages, to avoid phenotypic changes.
The cytotoxicity profile of the compounds under study was evaluated in HepG2 cells (2.5 × 10^5 cells/mL) seeded in 96-well plates. […] Control experiments were performed for viability endpoints by adding the vehicle (medium with 0.1% DMSO) instead of the compound solution.
In the NR uptake assay, following a 24 h incubation period with the test compounds, the cell culture medium was aspirated, and fresh medium containing 150 µL of the dye (at a concentration of […]) was added to the cells. […] After incubation, the cell culture medium was discarded, and a mixture of absolute ethanol and distilled water (1:1) containing 5% acetic acid was added to extract the dye accumulated within the lysosomes of viable cells. The absorbance at 540 nm was measured using a microplate reader (Synergy HTX Multi-Mode Reader—BioTek, Winooski, VT, USA).
For all assays, results are expressed as a percentage of the control (nontreated cells), taken as 100%.

S. aureus XU212 = assay: MIC/MBC by broth microdilution, S. aureus XU212; type: cell-based; conditions: Staphylococcus aureus
Description: (§1) S. aureus CECT 976, obtained from the Spanish Type Culture Collection, was used as the standard susceptibility testing control strain. This strain has been previously employed in diverse studies to validate the antimicrobial effects of novel molecules. Additional antibiotic-resistant strains, S. aureus XU212, SA1199B, and RN4220, generously provided by S. Gibbons (University College London, London, UK) were tested. […] The SA1199B strain is characterized by its resistance to fluoroquinolones due to the overexpression of the NorA efflux pump and its ciprofloxacin resistance.
(§2) The minimum inhibitory concentration (MIC) and minimum bactericidal concentration (MBC) values of all QHSs were determined by the broth microdilution method, according to the approved M7-A7 (aerobes) standards of the Clinical and Laboratory Standards Institute (CLSI) guidelines. Overnight cell cultures of S. aureus, in the exponential phase of growth, were adjusted to an optical density (OD) of 0.132 ± 0.02 (λ = 600 nm). Then, a volume of 180 µL of the cell suspension was added to sterile, flat, clear-bottomed polystyrene (PS) 96-well microtiter plates (VWR—Radnor, PA, USA), already containing 20 µL of each QHS under study at concentrations ranging from 0.0625 to 64 µg/mL. In the end, the volume of each compound never exceeded 10% (v/v) of the well volume. Microtiter plates were then incubated for 24 h at 37 °C under agitation (150 rpm; INCU-Line IL 150R incubator). Absorbance measurements were performed at the beginning (t = 0 h) and end (t = 24 h) of the incubation period using a microtiter plate absorbance reader (BMG LABTECH FLUOstar Omega). Bacterial suspensions with DMSO and without QHSs were used as negative controls. […] All tests were performed with six replicates and a minimum of three independent repeats.
(§3) Plates were incubated at 37 °C for 24 h, and growth was visually inspected. The MBC was determined as the lowest concentration of compound in which the total inhibition of growth on solid medium was observed (no colony forming units (CFUs) were detected). All tests were performed in triplicate, and with a minimum of three independent repeats.

[1] = Chromatographic hydrophobicity index (CHI) by UHPLC; type: physicochemical; conditions: for CHI: LC/UV at pH 2.6, calculated from retention time with the calibration line; for chromatographic logP: back-calculated from CHI at pH 2.6: CHI LogP = 0.047 × CHI + 0.36 × HBC − 1.10
Description: The chromatographic hydrophobicity index (CHI) values were determined using the retention times (tR) of the samples under study and of a mixture of standard compounds on a UHPLC NEXERA SERIES LC-40 with a Luna C18 (2) column of 150 × 4.6 mm, 5 μm (Phenomenex, Torrance, CA, USA). Stock solutions of the test compounds (10 mM) were prepared in dimethyl sulfoxide (DMSO, 99.9%; Carlo Erba) and diluted in acetonitrile/water (1:1) to obtain a final concentration of 500 μM. The mobile phase A was 1.0% (v/v) aqueous acetic acid solution (pH = 2.6), and the mobile phase B was acetonitrile. The following gradient programme was applied: 1–7 min 0–100% B, 7–17 min 100% B, 17–19 min 100–0% B, 1 mL/min flow; rt, injection volume 40 μL.
A calibration line was obtained using a mixture of the following compounds: benzimidazole, theophylline, paracetamol, caffeine, colchicine, carbamazepine, indole, propiophenone, butyrophenone, valerophenone, and heptanophenone (Table S1 and Figure S50, Supplementary Materials). The experimental CHI values of the compounds tested at pH 2.6 were then converted to the logarithm of octanol/water partition coefficient (CHI LogP) values using Equation (1). CHI LogP = 0.047 × CHI + 0.36 × HBC − 1.10 (1) where HBC is the hydrogen bond donor count.

S. aureus RN4220 = assay: MIC/MBC by broth microdilution, S. aureus RN4220; type: cell-based; conditions: Staphylococcus aureus
Description: as §1, §2, §3

Row | Compound | NR uptake (lysosomal activity), % of control (HepG2 cells; 1 µg/mL) | NR uptake (lysosomal activity), % of control (HepG2 cells; 2 µg/mL) | NR uptake (lysosomal activity), % of control (HepG2 cells; 16 µg/mL) | NR uptake (lysosomal activity), % of control (HepG2 cells; 32 µg/mL) | MBC (S. aureus XU212) [µg/mL] | MIC (S. aureus XU212) [µg/mL] | CHI [1] | chromatographic logP [1] | MBC (S. aureus RN4220) [µg/mL] | MIC (S. aureus RN4220) [µg/mL] | safety profile (MIC correlated with in vitro human cellular data) (HepG2 cells)
1 | CCCCCCCCCCCCCC[P+](c1ccccc1)(c1ccccc1)c1ccccc1 [Compound 1e, Triphenyl(tetradecyl)phosphonium bromide] | 53.86 ± 4.854% (****) | 72.84 ± 7.906% (****) | 12.29 ± 3.775% (****) | 13.78 ± 2.666% (****) | 2 | 2 | 105.0 | 3.84 | 2 | 1 | –
2 | CCCCCCCCCCCCCC[n+]1ccccc1.[Br-] [Compound 6e, 1-Tetradecylpyridin-1-ium bromide] | – | – | 10.46 ± 3.129% (****) | 12.93 ± 3.760% (****) | 64 | 32 | 79.90 | 2.65 | 8 | 4 | –
3 | CCCCCCCCCCCCCC[n+]1ccc(C)cc1.[Br-] [Compound 4e, 4-Methyl-1-tetradecylpyridin-1-ium bromide] | – | – | 14.45 ± 2.437% (****) | 21.52 ± 19.06% (****) | 32 | 32 | 82.90 | 2.8 | 8 | 4 | favourable safety profile
4 | CCCCCCCCCCCCCC[n+]1cccc2ccccc21.[Br-] [Compound 5e, 1-Tetradecylquinolin-1-ium bromide] | – | 88.20 ± 3.101% (****) | 12.06 ± 2.988% (****) | 14.38 ± 4.045% (****) | 8 | 8 | 88.00 | 3.04 | 8 | 2 | favourable safety profile
5 | CCCCCCCCCCCCCC[n+]1ccc2ccccc2c1.[Br-] [Compound 3e, 2-Tetradecylisoquinolin-2-ium bromide] | – | 79.86 ± 9.893% (****) | 12.68 ± 2.385% (****) | 12.77 ± 1.368% (****) | 8 | 4 | 87.98 | 3.04 | 4 | 2 | –
6 | CCCCCCCCCCCCCC[n+]1ccn(C)c1.[Br-] [Compound 2e, 1-Methyl-3-tetradecyl-1H-imidazol-3-ium bromide] | – | 86.71 ± 4.103% (****) | 12.85 ± 2.005% (****) | 13.64 ± 2.776% (****) | 64 | 32 | 81.36 | 2.72 | 8 | 4 | favourable safety profile
